Assay results as given in patent US12012404B2, “Pyrimidoheterocyclic compounds and application thereof” (D3 BIO (WUXI) CO., LTD., priority 2020, dated 2024).
Read-outs that look alike come from different tables or passages of the source. One block for each compound: values may come before it.

Assays:
[1] = In vitro stability in liver microsomes, beagle dogs; type: in vitro ADME; conditions: 0.5 mg/mL
Procedure: Purpose of the assay: Metabolic stabilities of the assay compounds in liver microsomes of CD-1 mice, SD rats, beagle dogs, cynomolgus monkeys, and human were assayed, respectively.
Procedure of the assay: Two 96-well incubation plates were prepared and named T60 incubation plate and NCF60 incubation plate, respectively. 445 μL of microsomal working solutions (liver microsomal protein concentration of 0.56 mg/mL) were added to the T60 incubation plate and the NCF60 incubation plate, respectively, and then the above incubation plates were pre-incubated in a 37° C. water bath for about 10 minutes.
After the pre-incubation, 5 μL of working solutions of the assay sample or the control compound were added to the T60 incubation plate and the NCF60 incubation plate, respectively, and the mixture was mixed well. 50 μL of potassium phosphate buffer was added to each well of the NCF60 incubation plate to initiate the reaction. 180 μL of stop solution (200 ng/mL tolbutamide and 200 ng/mL labetalol in acetonitrile) and 6 uL of NADPH regeneration system working solution were added to the T0 stop plate, and 54 μL of sample was transferred from T60 incubation plate to T0 stop plate (generation of TO sample). The reaction was initiated by adding 44 μL of NADPH regeneration system working solution to each well of the T60 incubation plate. Only 54 μL of microsome working solution, 6 uL of NADPH regeneration system working solution and 180 μL of stop solution were added to the Blank plate. Therefore, in samples of the assay compound or the control compound, the final reaction concentration of compound, testosterone, diclofenac and propafenone was 1 μM, the concentration of liver microsomes was 0.5 mg/mL, and the final reaction concentrations of DMSO and acetonitrile in the reaction system were 0.01% (v/v) and 0.99% (v/v), respectively.
After an appropriate time (e.g., 5, 15, 30, 45 and 60 minutes) of incubation, 180 μL of stop solutions (200 ng/mL tolbutamide and 200 ng/mL labetalol in acetonitrile) were added to the sample wells of each stop plate, respectively. 60 μL of sample was removed from the T60 incubation plate to stop the reaction. All sample plates were shaken well and then centrifuged at 3220×g for 20 minutes. Then 80 μL of supernatant was taken out from each well, and diluted in 240 μL of pure water for liquid chromatography-tandem mass spectrometry analysis. All samples were injected and analyzed by liquid chromatography-tandem mass spectrometry.

[2] = Stability assay in plasma, CD-1 mice; type: in vitro ADME; conditions: CD-1 mice plasma, 2 μM, 37° C.
Procedure: Purpose of the assay: Stabilities of the assay compounds in plasma of CD-1 mice and human were assayed, respectively.
Procedure of the assay: Cryopreserved plasma was thawed for 10-20 min. After the plasma was completely thawed, it was placed in a centrifuge and centrifuged at 3220×g for 5 min to remove any suspended matter and sediment in the plasma. 96-well incubation plates were prepared and named TO, T10, T30, T60, T120, respectively. 98 μL of blank plasmas of mouse, rat, canine, monkey and human were added to the corresponding incubation plates, then 2 μL of working solutions of the compound or the control compound were added to the corresponding plates in duplicate. All samples were incubated in a 37° C. water bath. The final incubation concentrations of the compound and the control compounds bisacodyl, enalapril maleate, procaine and probanthine were 2 μM, and the final organic phase content was 2.0%. At the end of incubation for each time point, the corresponding incubation plate was removed and 400 μL of a solution of 200 ng/mL of tolbutamide and labetalol in acetonitrile was added to each corresponding sample well to precipitate the protein. All sample plates were sealed and shaken well, and then centrifuged at 3220×g for 20 minutes. 50 μL of supernatant was taken out and diluted in 100 μL of ultrapure water. All samples were mixed well and then analyzed by LC/MS/MS.

plasma protein of human = experiment: Protein binding rate by equilibrium dialysis, human plasma; type: in vitro ADME; conditions: 2 μM, dialysis 4 hours
Procedure: Purpose of the assay: Protein binding rate of the assay compounds in plasma of CD-1 mice, SD rats, beagle dogs, cynomolgus monkeys and human was determined by equilibrium dialysis.
Procedure of the assay: Plasma samples with a compound concentration of 2 μM were prepared using plasma of the above five species, placed in a 96-well equilibrium dialysis device, and dialyzed with phosphate buffer solution at 37±1° C. for 4 hours. Warfarin was used as the control compound in this assay. The concentrations of the assay compounds in plasma and dialysis buffer were determined by LC-MS/MS method.

[3] = Pharmacokinetics by oral administration and intravenous injection in SD rats; type: in vivo; conditions: for AUCu: AUC0-last × PPB(Unbound %); for Peak concentration, Cmax, u: Cmax × PPB(Unbound %); for Cmax: read-out: Peak concentration, Cmax; for Vd: SD, iv, 2 mg/kg
Procedure: 1) Assay on the Pharmacokinetics of the Assay Compounds by Oral Administration and Intravenous Injection in SD Rats
The assay compound was mixed with […] (10% hydroxypropyl-β-cyclodextrin) solution. The mixture was vortexed and sonicated to prepare a 1 mg/mL clear solution, which was filtered through a microporous membrane for later use. Male SD rats aged 7 to 10 weeks were selected, and administered candidate compound solutions intravenously or orally. Whole blood was collected for a certain period of time, and prepared to obtain plasma. Drug concentration was analyzed by LC-MS/MS method, and pharmacokinetic parameters were calculated by Phoenix WinNonlin software (Pharsight, USA).

[4] = Stability assay in whole blood, cynomolgus monkeys; type: in vitro ADME; conditions: 5 μM, 37° C.
Procedure: Purpose of the assay: Stabilities of the assay compounds in whole blood of CD-1 mice, SD rats, Beagle dogs and cynomolgus monkeys were assayed, respectively.
Procedure of the assay: On the day of the assay or the day before the assay, fresh whole blood from CD-1 mice, SD rats, beagle dogs, and cynomolgus monkeys was collected using anticoagulant EDTA-K2. Prior to the start of the assay, the whole blood was mixed with PBS in 1:1 (v:v) and the mixture was preheated in a 37° C. water bath for 10-20 minutes. […] […] All samples were incubated in a 37° C. water bath. The final incubation concentration of the compound was 5 μM and the final incubation concentration of the control compound was 2 μM. At the end of incubation for each time point, the corresponding incubation plate was removed and 100 μL of ultrapure water was immediately added to the corresponding sample wells, and mixed well. 800 μL of a solution of 200 ng/mL tolbutamide and labetalol in acetonitrile was added to precipitate the protein. The sample plates were sealed and shaken well, and then centrifuged at 3220×g for 20 min. 150 μL of supernatant was taken out and analyzed by LC/MS/MS.

[5] = intravenous injection, 2.0 mg/kg
[6] = oral, 9.7 mg/kg (8B), 9.8 mg/kg (17)
[7] = male, rat, plasma, oral, 9.7 mg/kg (8B), 9.8 mg/kg (17)

- CLint(liver) ([1]; 1 μM): <13.8 mL/min/kg
- CLint(mic) ([1]; 1 μM): < 9.6 µL/min/mg
- T1/2 ([1]; 1 μM): >2.42 h
- Detection of assay compound content within 120 min [2]: 110%
- Protein unbound rate (plasma protein of human): 10.6
- AUC0-last [3, 5]: 0.544 µM·h
- Apparent volume of distribution, Vdss [3, 5]: 17.9 L/kg
- Clearance rate, CL [3, 5]: 85.2 mL/min/kg
- Half-life period, T1/2 [3, 5]: 2.8 h
- AUCu [3, 5]: 0.0533 µM·h
- Apparent volume of distribution, Vdss, u ([3]; intravenous injection, 2.0 mg/kg, Vdss/PPB(Unbound %)): 203 L/kg
- AUC0-last [3, 6]: 1.211 µM·h
- Bioavailability F [3, 6]: 44.5%
- Time-to-peak, Tmax [3, 6]: 1.5 h
- AUCu [3, 6]: 0.119 µM·h
- Peak concentration, Cmax, u [3, 6]: 21.3 nM
- Cmax [3, 6]: 218 nM
- Detection of assay compound content within 120 min [4]: 58%
Compound: C=C(F)C(=O)N1CCN(c2nc(OCC3CCCN3C)nc3c2COC(c2c(F)c(N)cc(C)c2C(F)(F)F)C3)CC1CC#N.Cl (single isomer, unassigned) [Compound 8B hydrochloride]

Compound: C=C(F)C(=O)N1CCN(c2nc(OC[C@@]34CCCN3C[C@H](F)C4)nc3c2COC(c2c(F)c(N)cc(C)c2C(F)(F)F)C3)C[C@@H]1CC#N (stereo partly drawn) [Compound 17]
- CLint(mic) ([1]; 1 μM): < 9.6 µL/min/mg
- CLint scaled at 1 μM ([1]; dog): < 13.8 mL/min/kg
- half-life at 1 μM ([1]; dog): > 2.42 h
- Detection of assay compound content within 120 min [2]: 94%
- Protein unbound rate (plasma protein of human): 4.8
- AUCu [3, 5]: 0.0313 µM·h
- Vd ([3]; male, rat, plasma, intravenous injection, 2.0 mg/kg, Vdss/PPB(Unbound %), read-out: Apparent volume of distribution, Vdss, u): 221 L/kg
- Vd ([3]; male, rat, plasma, intravenous injection, 2.0 mg/kg, read-out: Apparent volume of distribution, Vdss): 10.6 L/kg
- AUC(0-t) ([3]; male, rat, plasma, intravenous injection, 2.0 mg/kg): 0.653 µM·h
- clearance ([3]; male, rat, plasma, intravenous injection, 2.0 mg/kg, read-out: Clearance rate, CL): 71.5 mL/min/kg
- half-life ([3]; male, rat, plasma, intravenous injection, 2.0 mg/kg, read-out: Half-life period, T1/2 (converted)): 1.9 h
- AUC(0-t) [3, 7]: 0.995 µM·h
- bioavailability ([3]; male, rat, plasma, oral, 9.7 mg/kg (8B), 9.8 mg/kg (17), read-out: Bioavailability F): 30.5%
- Cmax [3, 7]: 220 nM
- Tmax ([3]; male, rat, plasma, oral, 9.7 mg/kg (8B), 9.8 mg/kg (17), read-out: Time-to-peak, Tmax): 1.5 h
- AUCu [3, 6]: 0.0478 µM·h
- Peak concentration, Cmax, u [3, 6]: 10.6 nM
- Detection of assay compound content within 120 min [4]: 77%
